{
  "source": "patent EP2177209A1",
  "about": "“Intravenous solutions and uses” (priority 2008, dated 2010)",
  "key": {"Listeria monocytogenes": {"tested_on": "Listeria monocytogenes", "details": "20 library strains"}, "Clostridium difficile": {"tested_on": "Clostridium difficile", "details": "10 library strains"}, "[1]": {"tested_on": "Streptococcus constellatus"}, "Escherichia coli": {"tested_on": "Escherichia coli", "details": "50 strains"}, "Helicobacter pylori": {"tested_on": "Helicobacter pylori", "details": "5 library strains"}, "Neisseria meningitidis": {"tested_on": "Neisseria meningitidis", "details": "20 library strains"}, "Bacteroides fragilis": {"tested_on": "Bacteroides fragilis", "details": "20 library strains"}, "Clostridium perfringens": {"tested_on": "Clostridium perfringens", "details": "10 library strains"}, "Haemophilus influenzae": {"tested_on": "Haemophilus influenzae", "details": "70 strains"}, "Pseudomonas aeruginosa": {"tested_on": "Pseudomonas aeruginosa", "details": "50 strains"}, "[2]": {"tested_on": "methicillin-resistant Staphylococcus epidermidis (MRSE)"}, "[3]": {"tested_on": "methicillin-resistant Staphylococcus aureus (MRSA)"}, "Moraxella catarrhalis": {"tested_on": "Moraxella catarrhalis", "details": "50 strains"}, "Neisseria gonorrhoeae": {"tested_on": "Neisseria gonorrhoeae", "details": "20 library strains"}, "[4]": {"tested_on": "methicillin-susceptible Staphylococcus aureus (MSSA)"}, "[5]": {"tested_on": "methicillin-susceptible Staphylococcus epidermidis (MSSE)"}},
  "data": [
    {"smiles": "CCCCCCCCCC(=O)N[C@@H](Cc1c[nH]c2ccccc12)C(=O)N[C@H](CC(N)=O)C(=O)N[C@@H](CC(=O)O)C(=O)N[C@@H]1C(=O)NCC(=O)N[C@@H](CCCN)C(=O)N[C@@H](CC(=O)O)C(=O)N[C@H](C)C(=O)N[C@@H](CC(=O)O)C(=O)NCC(=O)N[C@H](CO)C(=O)N[C@@H]([C@H](C)CC(=O)O)C(=O)N[C@@H](CC(=O)c2ccccc2N)C(=O)O[C@@H]1C", "note": "[Daptomycin, daptomycin]", "values": [
      {"measurement": "MIC 50%", "setting": "Listeria monocytogenes", "result": 1, "unit": "µg/mL"},
      {"measurement": "MIC 90%", "setting": "Listeria monocytogenes", "result": 2, "unit": "µg/mL"},
      {"measurement": "MIC MAX", "setting": "Listeria monocytogenes", "result": "≥128", "unit": "µg/mL"},
      {"measurement": "MIC MIN", "setting": "Listeria monocytogenes", "result": 0.015, "unit": "µg/mL"},
      {"measurement": "MIC 50%", "setting": "Group B Streptococci", "result": 0.5, "unit": "µg/mL"},
      {"measurement": "MIC 90%", "setting": "Group B Streptococci", "result": 1, "unit": "µg/mL"},
      {"measurement": "MIC MAX", "setting": "Group B Streptococci", "result": 1, "unit": "µg/mL"},
      {"measurement": "MIC MIN", "setting": "Group B Streptococci", "result": 0.12, "unit": "µg/mL"},
      {"measurement": "MIC 50%", "setting": "Group A Streptococci", "result": "≤0.03", "unit": "µg/mL"},
      {"measurement": "MIC 90", "setting": "Group A Streptococci", "result": 0.06, "unit": "µg/mL"},
      {"measurement": "MIC MAX", "setting": "Group A Streptococci", "result": 0.12, "unit": "µg/mL"},
      {"measurement": "MIC MIN", "setting": "Group A Streptococci", "result": "≤0.03", "unit": "µg/mL"},
      {"measurement": "MIC 50%", "setting": "Clostridium difficile", "result": 0.25, "unit": "µg/mL"},
      {"measurement": "MIC 90%", "setting": "Clostridium difficile", "result": 2, "unit": "µg/mL"},
      {"measurement": "MIC MAX", "setting": "Clostridium difficile", "result": 2, "unit": "µg/mL"},
      {"measurement": "MIC MIN", "setting": "Clostridium difficile", "result": 0.12, "unit": "µg/mL"},
      {"measurement": "MIC 50%", "setting": "[1]", "result": 0.5, "unit": "µg/mL"},
      {"measurement": "MIC 90%", "setting": "[1]", "result": 0.5, "unit": "µg/mL"},
      {"measurement": "MIC MAX", "setting": "[1]", "result": 0.5, "unit": "µg/mL"},
      {"measurement": "MIC MIN", "setting": "[1]", "result": 0.12, "unit": "µg/mL"},
      {"measurement": "MIC 50%", "setting": "Escherichia coli", "result": "≥128", "unit": "µg/mL"},
      {"measurement": "MIC 90%", "setting": "Escherichia coli", "result": "≥128", "unit": "µg/mL"},
      {"measurement": "MIC MAX", "setting": "Escherichia coli", "result": "≥128", "unit": "µg/mL"},
      {"measurement": "MIC MIN", "setting": "Escherichia coli", "result": "≥128", "unit": "µg/mL"},
      {"measurement": "MIC 50%", "setting": "Helicobacter pylori", "result": "≥128", "unit": "µg/mL"},
      {"measurement": "MIC 90%", "setting": "Helicobacter pylori", "result": "≥128", "unit": "µg/mL"},
      {"measurement": "MIC MAX", "setting": "Helicobacter pylori", "result": "≥128", "unit": "µg/mL"},
      {"measurement": "MIC MIN", "setting": "Helicobacter pylori", "result": "≥128", "unit": "µg/mL"},
      {"measurement": "MIC 50%", "setting": "Group C Streptococci", "result": 0.12, "unit": "µg/mL"},
      {"measurement": "MIC 90%", "setting": "Group C Streptococci", "result": 0.25, "unit": "µg/mL"},
      {"measurement": "MIC MAX", "setting": "Group C Streptococci", "result": 0.5, "unit": "µg/mL"},
      {"measurement": "MIC MIN", "setting": "Group C Streptococci", "result": "≤0.03", "unit": "µg/mL"},
      {"measurement": "MIC 50%", "setting": "Streptococcus pneumoniae", "result": 0.12, "unit": "µg/mL"},
      {"measurement": "MIC 90%", "setting": "Streptococcus pneumoniae", "result": 0.5, "unit": "µg/mL"},
      {"measurement": "MIC MAX", "setting": "Streptococcus pneumoniae", "result": 0.5, "unit": "µg/mL"},
      {"measurement": "MIC MIN", "setting": "Streptococcus pneumoniae", "result": "≤0.03", "unit": "µg/mL"},
      {"measurement": "MIC 50%", "setting": "Streptococcus sanguis", "result": 0.25, "unit": "µg/mL"},
      {"measurement": "MIC 90%", "setting": "Streptococcus sanguis", "result": 0.5, "unit": "µg/mL"},
      {"measurement": "MIC 50%", "setting": "Neisseria meningitidis", "result": 64, "unit": "µg/mL"},
      {"measurement": "MIC MAX", "setting": "Neisseria meningitidis", "result": "≥128", "unit": "µg/mL"},
      {"measurement": "MIC MIN", "setting": "Neisseria meningitidis", "result": 8, "unit": "µg/mL"},
      {"measurement": "MIC 50%", "setting": "Streptococcus mitis", "result": 0.5, "unit": "µg/mL"},
      {"measurement": "MIC 90%", "setting": "Streptococcus mitis", "result": 1, "unit": "µg/mL"},
      {"measurement": "MIC MAX", "setting": "Streptococcus mitis", "result": 1, "unit": "µg/mL"},
      {"measurement": "MIC MIN", "setting": "Streptococcus mitis", "result": 0.12, "unit": "µg/mL"},
      {"measurement": "MIC 50%", "setting": "Bacteroides fragilis", "result": "≥128", "unit": "µg/mL"},
      {"measurement": "MIC 90%", "setting": "Bacteroides fragilis", "result": "≥128", "unit": "µg/mL"},
      {"measurement": "MIC MAX", "setting": "Bacteroides fragilis", "result": "≥128", "unit": "µg/mL"},
      {"measurement": "MIC MIN", "setting": "Bacteroides fragilis", "result": "≥128", "unit": "µg/mL"},
      {"measurement": "MIC 50%", "setting": "Clostridium perfringens", "result": 1, "unit": "µg/mL"},
      {"measurement": "MIC 50%", "setting": "Haemophilus influenzae", "result": "≥128", "unit": "µg/mL"},
      {"measurement": "MIC 90%", "setting": "Haemophilus influenzae", "result": "≥128", "unit": "µg/mL"},
      {"measurement": "MIC MAX", "setting": "Haemophilus influenzae", "result": "≥128", "unit": "µg/mL"},
      {"measurement": "MIC MIN", "setting": "Haemophilus influenzae", "result": "≥128", "unit": "µg/mL"},
      {"measurement": "MIC 90%", "setting": "Streptococcus oralis", "result": 2, "unit": "µg/mL"},
      {"measurement": "MIC MAX", "setting": "Streptococcus oralis", "result": 2, "unit": "µg/mL"},
      {"measurement": "MIC MIN", "setting": "Streptococcus oralis", "result": 0.25, "unit": "µg/mL"},
      {"measurement": "MIC 50%", "setting": "Pseudomonas aeruginosa", "result": "≥128", "unit": "µg/mL"},
      {"measurement": "MIC 90%", "setting": "Pseudomonas aeruginosa", "result": "≥128", "unit": "µg/mL"},
      {"measurement": "MIC MAX", "setting": "Pseudomonas aeruginosa", "result": "≥128", "unit": "µg/mL"},
      {"measurement": "MIC MIN", "setting": "Pseudomonas aeruginosa", "result": "≥128", "unit": "µg/mL"},
      {"measurement": "MIC 50%", "setting": "[2]", "result": 0.25, "unit": "µg/mL"},
      {"measurement": "MIC 90%", "setting": "[2]", "result": 0.5, "unit": "µg/mL"},
      {"measurement": "MIC MAX", "setting": "[2]", "result": 0.5, "unit": "µg/mL"},
      {"measurement": "MIC MIN", "setting": "[2]", "result": 0.06, "unit": "µg/mL"},
      {"measurement": "MIC 50%", "setting": "[3]", "result": 0.25, "unit": "µg/mL"},
      {"measurement": "MIC 90%", "setting": "[3]", "result": 0.5, "unit": "µg/mL"},
      {"measurement": "MIC MAX", "setting": "[3]", "result": 1, "unit": "µg/mL"},
      {"measurement": "MIC MIN", "setting": "[3]", "result": 0.12, "unit": "µg/mL"},
      {"measurement": "MIC 50%", "setting": "Moraxella catarrhalis", "result": 8, "unit": "µg/mL"},
      {"measurement": "MIC 90%", "setting": "Moraxella catarrhalis", "result": 16, "unit": "µg/mL"},
      {"measurement": "MIC MAX", "setting": "Moraxella catarrhalis", "result": "≥128", "unit": "µg/mL"},
      {"measurement": "MIC MIN", "setting": "Moraxella catarrhalis", "result": 2, "unit": "µg/mL"},
      {"measurement": "MIC 50%", "setting": "Streptococcus bovis", "result": 0.06, "unit": "µg/mL"},
      {"measurement": "MIC 90%", "setting": "Streptococcus bovis", "result": 0.12, "unit": "µg/mL"},
      {"measurement": "MIC MAX", "setting": "Streptococcus bovis", "result": 0.12, "unit": "µg/mL"},
      {"measurement": "MIC MIN", "setting": "Streptococcus bovis", "result": "≤0.03", "unit": "µg/mL"},
      {"measurement": "MIC 50%", "setting": "Neisseria gonorrhoeae", "result": "≥128", "unit": "µg/mL"},
      {"measurement": "MIC 90%", "setting": "Neisseria gonorrhoeae", "result": "≥128", "unit": "µg/mL"},
      {"measurement": "MIC MIN", "setting": "Neisseria gonorrhoeae", "result": 64, "unit": "µg/mL"},
      {"measurement": "MIC 50%", "setting": "[4]", "result": 0.25, "unit": "µg/mL"},
      {"measurement": "MIC 90%", "setting": "[4]", "result": 0.25, "unit": "µg/mL"},
      {"measurement": "MIC MAX", "setting": "[4]", "result": 0.5, "unit": "µg/mL"},
      {"measurement": "MIC MIN", "setting": "[4]", "result": 0.06, "unit": "µg/mL"},
      {"measurement": "MIC 50%", "setting": "[5]", "result": 0.25, "unit": "µg/mL"},
      {"measurement": "MIC 90%", "setting": "[5]", "result": 0.5, "unit": "µg/mL"},
      {"measurement": "MIC MAX", "setting": "[5]", "result": 1, "unit": "µg/mL"},
      {"measurement": "MIC MIN", "setting": "[5]", "result": 0.06, "unit": "µg/mL"}
    ]}
  ]
}
